Measured values reported in paper PMC7313537 (PLoS ONE, 2020).

Legend:
[1] = Plasma protein binding (equilibrium dialysis); assay type: in vitro ADME, cynomolgus monkey; settings: pH 7.4, monkey plasma, read-out: PPB (% free)
Procedure: The final DMSO content in all cases was <0.1%. Each condition was incubated in duplicate. For protein binding determination, the Multi-Equilibrium Dialyzer System™ and diachema membranes from Harvard Apparatus (Holliston, MA) were utilized. Equilibrium dialysis was carried out in Teflon cells separated by a dialysis membrane with a molecular weight cutoff of 10,000 Daltons. […] The cells were rotated at a speed of 12 rpm in a 37°C water bath for 2 hours. Following the incubation period, buffer and serum/plasma samples were drained separately into empty preweighed glass test tubes. The tubes were reweighed, and the exact volume of sample recovered from each side of the dialysis cell was calculated using the mass. A 75-μL aliquot of each sample (buffer or serum/plasma) was added to a 96-well plate containing a protein precipitation solution of 100% methanol and 0.2 μM dextrorphan as the internal standard; 75 μL of blank buffer or plasma/serum was added to the plate to ensure identical composition across all samples. Prior to analysis, samples prepared in the 96-well plate were vigorously vortexed for approximately 5 minutes and centrifuged for 10 minutes at ~1700 × g to remove denatured proteins and particulate matter. The supernatant was transferred and analyzed using LC-MS/MS.

[2] = test system: AN3CA (endometrial cancer); assay: Cell viability assay (CellTiter-Glo); assay type: cell-based; settings: Homo sapiens, AN3-CA; FGFR2 N310R/N549K mutations; 72 hours; read-out: Mean GI50 ± S.D.
[3] = cited from earlier work
[4] = Intrinsic clearance in liver microsomes; assay type: in vitro ADME
Procedure: Aliquots were taken at 0, 10, 20, and 30 minutes and denatured with methanol. After centrifugation to remove the denatured proteins, the resulting supernatants were analyzed by LC/MS

JNK1 = JNK1 (Homo sapiens, UniProt P45983); assay: Enzyme selectivity panel; assay type: biochemical; settings: 1 mM ATP
Procedure: (§1) The kinase assays were carried out at room temperature in HEPES 50 mM, pH 7.0, NaN3 0.02%, BSA 0.01%, Orthovanadate 0.1 mM, DTT 1 mM, MgCl2 10 mM in a final volume of 10 µL. Test compounds were transferred to the plate wells by ECHO liquid handler (Labcyte, San Jose, CA) with 0.5% dimethyl sulfoxide (DMSO) in the final assay. Peptide/kinase mixtures were diluted in the appropriate enzymatic buffer and 5µL of the mixture was added to a 384-well small volume black plate. Reactions were initiated by the addition of 5 µL ATP in reaction buffer, the final reaction mixture consisted of 500 nM peptide substrate, 1 mM ATP, and appropriate amount of specific kinase. […] The plates were then sealed and centrifuged at 1800 rpm for 2 minutes. […] Half maximal inhibitory concentration (IC50) determination was performed by fitting the curve of percent control activity versus the log of the compound concentration using the GraphPad Prism 6.0 software.

[5] = test system: myeloid/lymphoid neoplasm expressing CEP110-FGFR1; parameters: method as in PMID 29767670; settings: single patient, CEP110-FGFR1 fusion ref 40; cited from earlier work
SGK3 = SGK3 (Homo sapiens, UniProt Q96BR1); assay: Enzyme selectivity panel; assay type: biochemical; settings: 1 mM ATP
Sequence of SGK3 (Q96BR1 whole entry, species assumed): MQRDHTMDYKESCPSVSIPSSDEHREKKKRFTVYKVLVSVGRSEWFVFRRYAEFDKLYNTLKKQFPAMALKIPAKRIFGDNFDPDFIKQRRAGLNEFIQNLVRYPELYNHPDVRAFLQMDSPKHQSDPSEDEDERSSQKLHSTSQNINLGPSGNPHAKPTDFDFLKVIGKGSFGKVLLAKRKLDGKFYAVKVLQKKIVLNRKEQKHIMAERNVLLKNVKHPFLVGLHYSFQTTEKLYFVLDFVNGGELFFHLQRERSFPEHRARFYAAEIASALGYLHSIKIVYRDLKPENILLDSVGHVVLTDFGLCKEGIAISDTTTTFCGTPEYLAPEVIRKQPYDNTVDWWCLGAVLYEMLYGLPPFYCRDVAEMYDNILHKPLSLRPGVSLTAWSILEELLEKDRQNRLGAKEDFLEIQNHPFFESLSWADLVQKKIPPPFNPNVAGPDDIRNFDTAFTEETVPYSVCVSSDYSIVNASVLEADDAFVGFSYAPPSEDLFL
Procedure: as §1

PKCD = PKCD (Homo sapiens, UniProt Q05655); assay: Enzyme selectivity panel; assay type: biochemical; settings: 1 mM ATP
Procedure: as §1

CAMK2D = CAMK2D (Homo sapiens, UniProt Q13557); assay: Enzyme selectivity panel; assay type: biochemical; settings: 1 mM ATP
Procedure: as §1

RET = RET (Homo sapiens, UniProt P07949); assay: Enzyme selectivity panel; assay type: biochemical; settings: 1 mM ATP
Sequence of RET (P07949 29-1114, species assumed): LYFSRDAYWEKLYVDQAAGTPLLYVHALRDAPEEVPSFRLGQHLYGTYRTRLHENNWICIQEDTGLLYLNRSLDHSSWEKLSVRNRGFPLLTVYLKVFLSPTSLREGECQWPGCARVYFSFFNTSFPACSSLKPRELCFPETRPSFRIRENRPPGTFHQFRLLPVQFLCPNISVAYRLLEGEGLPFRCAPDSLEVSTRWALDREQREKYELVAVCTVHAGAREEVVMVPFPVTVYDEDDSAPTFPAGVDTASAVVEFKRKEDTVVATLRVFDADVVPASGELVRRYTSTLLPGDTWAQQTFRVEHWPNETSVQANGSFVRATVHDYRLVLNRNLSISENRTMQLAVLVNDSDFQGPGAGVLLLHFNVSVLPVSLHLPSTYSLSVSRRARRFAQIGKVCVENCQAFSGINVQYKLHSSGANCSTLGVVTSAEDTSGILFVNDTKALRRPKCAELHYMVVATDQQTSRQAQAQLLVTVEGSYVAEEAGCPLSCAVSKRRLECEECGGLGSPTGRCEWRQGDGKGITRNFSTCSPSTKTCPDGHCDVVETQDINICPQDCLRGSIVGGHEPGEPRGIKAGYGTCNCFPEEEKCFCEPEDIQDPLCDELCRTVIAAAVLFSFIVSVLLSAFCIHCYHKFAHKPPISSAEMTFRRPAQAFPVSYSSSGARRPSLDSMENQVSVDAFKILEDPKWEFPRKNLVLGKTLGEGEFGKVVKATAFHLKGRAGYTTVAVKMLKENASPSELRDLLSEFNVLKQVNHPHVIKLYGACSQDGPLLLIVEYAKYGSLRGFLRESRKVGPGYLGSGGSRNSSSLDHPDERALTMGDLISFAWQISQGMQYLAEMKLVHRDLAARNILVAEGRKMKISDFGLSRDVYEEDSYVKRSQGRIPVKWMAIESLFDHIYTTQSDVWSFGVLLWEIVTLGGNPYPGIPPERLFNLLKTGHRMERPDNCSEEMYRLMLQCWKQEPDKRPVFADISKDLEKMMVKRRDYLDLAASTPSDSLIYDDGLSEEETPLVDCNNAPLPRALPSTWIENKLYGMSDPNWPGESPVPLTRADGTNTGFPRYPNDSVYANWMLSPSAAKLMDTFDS
Procedure: as §1

PDGFR BETA = target: T1, PDGFR BETA (Homo sapiens, UniProt P09619); assay: Enzyme selectivity panel; assay type: biochemical; settings: 1 mM ATP
T1 construct: purchased In-house HTRF panel (56 kinases) and PerkinElmer (161-kinase panel)
Procedure: as §1

IKKB = IKKB (Homo sapiens, UniProt O14920); assay: Enzyme selectivity panel; assay type: biochemical; settings: 1 mM ATP
Procedure: as §1

MSSK1 = MSSK1 (Homo sapiens, UniProt Q9UPE1); assay: Enzyme selectivity panel; assay type: biochemical; settings: 1 mM ATP
Procedure: as §1

BRAF = BRAF (Homo sapiens, UniProt P15056); assay: Enzyme selectivity panel; assay type: biochemical; settings: 1 mM ATP
Sequence of BRAF (P15056 whole entry, species assumed): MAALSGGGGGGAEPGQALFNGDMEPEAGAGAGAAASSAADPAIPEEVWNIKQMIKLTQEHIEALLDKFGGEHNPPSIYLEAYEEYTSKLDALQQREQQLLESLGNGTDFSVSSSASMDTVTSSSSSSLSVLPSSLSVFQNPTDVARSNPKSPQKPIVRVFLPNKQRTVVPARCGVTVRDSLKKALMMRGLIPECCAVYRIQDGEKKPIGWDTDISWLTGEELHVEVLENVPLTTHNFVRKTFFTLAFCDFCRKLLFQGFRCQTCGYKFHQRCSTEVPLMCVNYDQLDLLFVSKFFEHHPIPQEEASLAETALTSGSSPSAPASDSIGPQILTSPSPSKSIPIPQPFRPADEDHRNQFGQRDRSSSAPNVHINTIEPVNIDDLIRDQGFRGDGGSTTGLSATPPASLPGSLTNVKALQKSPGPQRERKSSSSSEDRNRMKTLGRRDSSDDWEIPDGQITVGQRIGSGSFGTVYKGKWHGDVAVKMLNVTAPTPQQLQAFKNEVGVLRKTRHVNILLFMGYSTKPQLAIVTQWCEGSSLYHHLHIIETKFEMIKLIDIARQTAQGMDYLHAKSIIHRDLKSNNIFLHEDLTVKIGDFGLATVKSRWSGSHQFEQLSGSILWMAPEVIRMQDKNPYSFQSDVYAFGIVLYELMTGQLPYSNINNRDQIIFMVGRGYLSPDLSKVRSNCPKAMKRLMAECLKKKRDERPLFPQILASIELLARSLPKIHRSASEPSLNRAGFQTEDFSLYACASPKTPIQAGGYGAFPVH
Procedure: as §1

[6] = test system: b-FGF induced growth of human umbilical vein endothelial cells (HUVEC); assay: HUVEC proliferation stimulated with b-FGF; assay type: cell-based; settings: read-out: IC50 for b-FGF induced growth
[7] = test system: primary T cells from normal donors; settings: up to 1,500 nM
PAK4 = PAK4 (Homo sapiens, UniProt O96013); assay: Enzyme selectivity panel; assay type: biochemical; settings: 1 mM ATP
Sequence of PAK4 (O96013 whole entry, species assumed): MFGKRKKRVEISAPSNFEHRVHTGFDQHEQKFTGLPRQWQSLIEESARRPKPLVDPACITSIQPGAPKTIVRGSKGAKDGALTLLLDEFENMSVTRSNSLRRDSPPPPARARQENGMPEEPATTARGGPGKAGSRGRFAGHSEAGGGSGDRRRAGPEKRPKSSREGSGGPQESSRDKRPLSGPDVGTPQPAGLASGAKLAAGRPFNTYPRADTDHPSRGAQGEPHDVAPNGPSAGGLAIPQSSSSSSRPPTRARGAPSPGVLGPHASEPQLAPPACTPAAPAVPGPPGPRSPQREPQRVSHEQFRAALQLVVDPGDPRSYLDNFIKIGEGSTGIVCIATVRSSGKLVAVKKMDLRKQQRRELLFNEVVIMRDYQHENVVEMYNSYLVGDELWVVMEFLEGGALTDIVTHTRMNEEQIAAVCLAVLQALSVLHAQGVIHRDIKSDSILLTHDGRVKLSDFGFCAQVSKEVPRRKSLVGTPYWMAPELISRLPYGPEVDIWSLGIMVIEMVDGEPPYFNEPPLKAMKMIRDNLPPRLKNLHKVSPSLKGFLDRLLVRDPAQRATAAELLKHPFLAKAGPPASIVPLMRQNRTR
Procedure: as §1

STK4 = STK4 (Homo sapiens, UniProt Q13043); assay: Enzyme selectivity panel; assay type: biochemical; settings: 1 mM ATP
Procedure: as §1

ZAP70 = ZAP70 (Homo sapiens, UniProt P43403); assay: Enzyme selectivity panel; assay type: biochemical; settings: 1 mM ATP
Sequence of ZAP70 (P43403 whole entry, species assumed): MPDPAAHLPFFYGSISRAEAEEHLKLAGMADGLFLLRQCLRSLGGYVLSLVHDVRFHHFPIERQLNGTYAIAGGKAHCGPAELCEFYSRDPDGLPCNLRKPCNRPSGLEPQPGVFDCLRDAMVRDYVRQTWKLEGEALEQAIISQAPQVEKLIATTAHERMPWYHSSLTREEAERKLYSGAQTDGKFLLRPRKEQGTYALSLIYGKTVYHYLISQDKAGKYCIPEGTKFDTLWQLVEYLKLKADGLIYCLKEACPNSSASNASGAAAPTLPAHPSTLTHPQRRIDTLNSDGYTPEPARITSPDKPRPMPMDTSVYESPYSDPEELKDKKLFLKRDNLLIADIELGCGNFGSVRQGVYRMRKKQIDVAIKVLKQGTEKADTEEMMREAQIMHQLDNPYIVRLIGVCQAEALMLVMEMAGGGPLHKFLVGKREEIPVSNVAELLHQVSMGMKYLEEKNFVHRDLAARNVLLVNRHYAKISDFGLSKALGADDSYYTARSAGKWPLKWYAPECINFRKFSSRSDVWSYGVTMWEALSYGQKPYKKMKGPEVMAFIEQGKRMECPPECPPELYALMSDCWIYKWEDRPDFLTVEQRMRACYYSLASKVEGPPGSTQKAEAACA
Procedure: as §1

hERG potassium current = target: T2, hERG potassium current (Homo sapiens, UniProt Q12809); assay: hERG potassium current (ChanTest); assay type: cell-based; settings: estimated; precise IC50 not calculated due to compound insolubility; data provided by ChanTest; read-out: IC50 for the inhibitory effect on hERG potassium current
T2 construct: ChanTest Corporation, Cleveland, OH
T2 sequence (Q12809 whole entry): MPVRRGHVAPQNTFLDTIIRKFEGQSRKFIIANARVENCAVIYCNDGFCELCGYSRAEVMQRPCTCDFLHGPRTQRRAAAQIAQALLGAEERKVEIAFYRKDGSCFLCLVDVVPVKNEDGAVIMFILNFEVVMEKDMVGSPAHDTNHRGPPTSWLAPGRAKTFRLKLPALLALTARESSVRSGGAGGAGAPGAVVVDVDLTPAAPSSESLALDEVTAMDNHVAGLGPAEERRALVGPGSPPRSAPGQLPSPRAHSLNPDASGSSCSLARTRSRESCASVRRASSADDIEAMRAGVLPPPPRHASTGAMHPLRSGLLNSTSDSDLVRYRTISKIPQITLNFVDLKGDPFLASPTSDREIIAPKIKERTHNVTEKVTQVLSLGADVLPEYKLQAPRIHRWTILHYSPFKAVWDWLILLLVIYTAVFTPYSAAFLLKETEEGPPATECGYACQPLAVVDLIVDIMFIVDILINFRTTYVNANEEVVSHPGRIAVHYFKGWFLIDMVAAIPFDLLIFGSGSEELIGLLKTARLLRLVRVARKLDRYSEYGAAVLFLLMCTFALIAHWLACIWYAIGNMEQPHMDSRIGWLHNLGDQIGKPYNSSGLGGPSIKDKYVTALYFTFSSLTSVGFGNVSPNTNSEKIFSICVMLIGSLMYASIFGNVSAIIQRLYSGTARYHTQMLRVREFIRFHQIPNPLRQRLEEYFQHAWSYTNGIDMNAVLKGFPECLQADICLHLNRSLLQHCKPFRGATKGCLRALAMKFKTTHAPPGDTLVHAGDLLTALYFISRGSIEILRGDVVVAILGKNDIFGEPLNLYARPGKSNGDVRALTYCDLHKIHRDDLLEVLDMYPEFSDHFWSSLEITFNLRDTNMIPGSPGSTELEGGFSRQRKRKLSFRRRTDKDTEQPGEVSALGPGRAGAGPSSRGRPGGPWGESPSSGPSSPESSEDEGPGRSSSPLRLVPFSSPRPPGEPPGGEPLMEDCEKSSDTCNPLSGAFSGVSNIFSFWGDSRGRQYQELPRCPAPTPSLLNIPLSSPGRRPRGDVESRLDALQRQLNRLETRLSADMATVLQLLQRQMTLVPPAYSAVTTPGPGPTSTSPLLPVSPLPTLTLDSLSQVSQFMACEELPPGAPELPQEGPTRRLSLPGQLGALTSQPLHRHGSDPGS

Pharmacokinetic analyses = assay type: in vivo, beagle dogs; settings: male dog
Procedure: The i.v. formulation in rats was 5% dimethylacetamide (DMAC) and 25% sulfobutyl ether β-cyclodextrin in acidified saline (pH 3). The i.v. formulation in dogs and monkeys was 5% DMAC and 20% sulfobutyl ether β-cyclodextrin in saline. The oral formulation in all species was 5% DMAC in 0.5% methylcellulose aqueous solution. For rats, blood samples were collected at predose, 5 (i.v. dosing only), 15, and 30 minutes, and 1, 2, 4, 6, 8, and 24 hours. For dogs, blood samples were collected at predose, 2.5 and 5 (i.v. dosing only), 15, and 30 minutes, and 1, 2, 3, 4, 6, 8, 12, and 24 hours postdose. For monkeys, blood samples were collected at predose, 5 and 10 (i.v. dosing only), 15, and 30 minutes, and 1, 2, 3, 4, 6, 8, 12, 16, and 24 hours postdose. Collected blood samples were processed to extract plasma by centrifugation and stored at −20 °C until analysis.
The plasma was protein precipitated and the diluted supernatant was analyzed using LC/MS/MS. A standard curve was prepared in plasma from 1 to 5,000 nM and processed in the same manner as the samples. The pharmacokinetic parameters were determined using WinNonLin 6.3.

TIE2 = TIE2 (Homo sapiens, UniProt Q02763); assay: Enzyme selectivity panel; assay type: biochemical; settings: 1 mM ATP
Procedure: as §1

KMS-11 (myeloma) = assay: Cell viability assay (CellTiter-Glo); assay type: cell-based; settings: Homo sapiens, IgH-FGFR3 translocation, 72 hours, read-out: Mean GI50 ± S.D.
ROCK1 = ROCK1 (Homo sapiens, UniProt Q13464); assay: Enzyme selectivity panel; assay type: biochemical; settings: 1 mM ATP
Procedure: as §1

MM1.S = assay: Cell viability assay (CellTiter-Glo); assay type: cell-based; settings: Homo sapiens, Myeloma, lacking FGFR alterations

For `CCN1C(=O)N(c2c(F)c(OC)cc(OC)c2F)Cc2cnc3[nH]c(CN4CCOCC4)cc3c21` [INCB054828, pemigatinib], the fraction unbound at 2 h, 1 μM [1] is given as 0.082, the GI50 [2] is given as 0.048 ± 0.028 µM and the “safety profile in phase 1 clinical trials” value [3] is given as “favorable safety profile”. The “pharmacokinetic data in patients” value ([3]; phase 1 dose-escalation study ref 33) was “low clearance and dose-linearity”, the Intrinsic clearance ([4]; human liver microsomes) was “moderate metabolic stability” and the CLint scaled at 1 μM ([4]; human, pH 7.4) was 13.3 mL/min/kg. The IC50 (JNK1) was > 10 µM, the clinical response [5] was “complete cytogenetic and hematologic remission” and the IC50 (SGK3) was > 10 µM. For the same compound, the IC50 (PKCD) was > 10 µM, the IC50 (CAMK2D) was > 10 µM and the IC50 (RET) was > 10 µM. The IC50 (PDGFR BETA) was 1.79 µM, the IC50 (IKKB) was > 10 µM and the IC50 (MSSK1) was > 10 µM. For the same compound, the IC50 (BRAF) was > 10 µM, the IC50 [6] was 0.0082 µM and the “inhibition of the proliferation of primary T cells” value [7] was “no inhibition”. The IC50 (PAK4) was > 10 µM, the IC50 (STK4) was > 10 µM and the IC50 (ZAP70) was > 10 µM. For the same compound, the IC50 (hERG potassium current) was > 8 µM, the clearance (Pharmacokinetic analyses; beagle, plasma, intravenous 1 mg/kg) was 3.05 mL/min/kg and the Cmax (Pharmacokinetic analyses; beagle, plasma, oral 2 mg/kg) was 1770 nM. It also gave a bioavailability (Pharmacokinetic analyses; beagle, plasma, oral 2 mg/kg) of 98%, a Vss (Pharmacokinetic analyses; intravenous 1 mg/kg) of 3.49 L/kg and a t½ (Pharmacokinetic analyses; intravenous 1 mg/kg) of 15.7 h. For the same compound, the “Hepatic ER” value (Pharmacokinetic analyses; intravenous 1 mg/kg, % of hepatic blood flow) was 10%, the AUC (Pharmacokinetic analyses; oral 2 mg/kg) was 22.1 µM·h and the IC50 (TIE2) was > 10 µM. For the same compound, the GI50 (KMS-11 (myeloma)) was 0.362 ± 0.282 µM, the IC50 (ROCK1) was > 10 µM and the GI50 (MM1.S) was > 5 µM.
